# Data published in PubChem BioAssay (NCI).
#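 Exposure lasted 48 hours, with cells grown in 96-well plates and compounds tested at five concentrations. GI50 = concentration required for 50% inhibition of growth. The concentration for full growth arrest is given as TGI.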
# Columns and labels:
# Experiment in all cases: NCI anticancer screen, dose series, 48 h
# [1] = test system: 786-0 renal
# [2] = test system: A498 renal
# [3] = test system: A549 NSCLC
# [4] = test system: ACHN renal
# [5] = test system: BT-549 breast
# [6] = test system: CAKI-1 renal
# [7] = test system: CCRF-CEM leukemia
# [8] = test system: COLO 205 colon
# [9] = test system: DU-145 prostate
# [10] = test system: EKVX NSCLC
# [11] = test system: HCC-2998 colon
# [12] = test system: HCT-116 colon
# [13] = test system: HCT-15 colon
# [14] = test system: HL-60(TB) leukemia
# [15] = test system: HOP-92 NSCLC
# [16] = test system: HS 578T breast
# [17] = test system: HT29 colon
# [18] = test system: IGROV1 ovarian
# [19] = test system: K-562 leukemia
# [20] = test system: KM12 colon
# [21] = test system: LOX IMVI melanoma
# [22] = test system: M14 melanoma
# [23] = test system: MALME-3M melanoma
# [24] = test system: MCF7 breast
# [25] = test system: MDA-MB-231 breast
# [26] = test system: MDA-MB-435
# [27] = test system: MOLT-4 leukemia
# [28] = test system: NCI-H226 lung
# [29] = test system: NCI-H460 lung
# [30] = test system: NCI-H522 lung
# [31] = test system: NCI/ADR-RES ovarian
# [32] = test system: OVCAR-3 ovarian
# [33] = test system: OVCAR-4 ovarian
# [34] = test system: OVCAR-5 ovarian
# [35] = test system: OVCAR-8 ovarian
# [36] = test system: PC-3 prostate
# [37] = test system: RPMI-8226 leukemia
# [38] = test system: SF-268 CNS
# [39] = test system: SF-295 CNS
# [40] = test system: SF-539 CNS
# [41] = test system: SK-MEL-2 melanoma
# [42] = test system: SK-MEL-28 melanoma
# [43] = test system: SK-MEL-5 melanoma
# [44] = test system: SK-OV-3 ovarian
# [45] = test system: SN12C renal
# [46] = test system: SNB-19 CNS
# [47] = test system: SNB-75 CNS
# [48] = test system: SW-620 colon
# [49] = test system: T-47D breast
# [50] = test system: TK-10 renal
# [51] = test system: U251 CNS
# [52] = test system: UACC-257 melanoma
# [53] = test system: UACC-62 melanoma
# [54] = test system: UO-31 renal
# [55] = test system: HOP-62 NSCLC
# [56] = test system: NCI-H23 lung
# [57] = test system: RXF 393 renal
smiles,measurement,setting,value
COc1cc(/C=C2\CC(C)CC3C2=NN(c2ccccc2)C3c2cc(OC)c(OC)c(OC)c2)cc(OC)c1OC (stereo not drawn),GI50,[1],27 µM
same,TGI,[1],> 100 µM
same,GI50,[2],13.5 µM
same,TGI,[2],42.5 µM
same,GI50,[3],14.9 µM
same,TGI,[3],> 100 µM
same,GI50,[4],11 µM
same,TGI,[4],44.6 µM
same,GI50,[5],10.1 µM
same,TGI,[5],39.9 µM
same,GI50,[6],26.7 µM
same,TGI,[6],> 100 µM
same,GI50,[7],7.75 µM
same,TGI,[7],> 100 µM
same,GI50,[8],17.5 µM
same,TGI,[8],> 100 µM
same,GI50,[9],15.4 µM
same,TGI,[9],45.7 µM
same,GI50,[10],13.5 µM
same,TGI,[10],> 100 µM
same,GI50,[11],17.9 µM
same,TGI,[11],37.5 µM
same,GI50,[12],6.21 µM
same,TGI,[12],33.1 µM
same,GI50,[13],11.2 µM
same,TGI,[13],25.6 µM
same,GI50,[14],6.48 µM
same,TGI,[14],90.6 µM
same,GI50,[15],13.6 µM
same,TGI,[15],37.1 µM
same,GI50,[16],18.4 µM
same,TGI,[16],81.2 µM
same,GI50,[17],11.1 µM
same,TGI,[17],39.9 µM
same,GI50,[18],20.2 µM
same,TGI,[18],> 100 µM
same,GI50,[19],6.4 µM
same,TGI,[19],> 100 µM
same,GI50,[20],7.28 µM
same,TGI,[20],40.8 µM
same,GI50,[21],9.69 µM
same,TGI,[21],27.8 µM
same,GI50,[22],14.9 µM
same,TGI,[22],52.1 µM
same,GI50,[23],21.3 µM
same,TGI,[23],> 100 µM
same,GI50,[24],10.6 µM
same,TGI,[24],> 100 µM
same,GI50,[25],14.4 µM
same,TGI,[25],71 µM
same,GI50,[26],8.53 µM
same,TGI,[26],47.7 µM
same,GI50,[27],13 µM
same,TGI,[27],> 100 µM
same,GI50,[28],37.4 µM
same,TGI,[28],> 100 µM
same,GI50,[29],11.1 µM
same,TGI,[29],28.4 µM
same,GI50,[30],10.2 µM
same,TGI,[30],59.3 µM
same,GI50,[31],12.1 µM
same,TGI,[31],> 100 µM
same,GI50,[32],14.1 µM
same,TGI,[32],> 100 µM
same,GI50,[33],14.2 µM
same,TGI,[33],> 100 µM
same,GI50,[34],53.7 µM
same,TGI,[34],> 100 µM
same,GI50,[35],10.2 µM
same,TGI,[35],> 100 µM
same,GI50,[36],16.9 µM
same,TGI,[36],> 100 µM
same,GI50,[37],3 µM
same,TGI,[37],26.5 µM
same,GI50,[38],14.1 µM
same,TGI,[38],44.6 µM
same,GI50,[39],10.3 µM
same,TGI,[39],63.7 µM
same,GI50,[40],16.6 µM
same,TGI,[40],36.2 µM
same,GI50,[41],15.6 µM
same,TGI,[41],93 µM
same,GI50,[42],11.2 µM
same,TGI,[42],39.7 µM
same,GI50,[43],11.8 µM
same,TGI,[43],24.2 µM
same,GI50,[44],9.14 µM
same,TGI,[44],41 µM
same,GI50,[45],19.8 µM
same,TGI,[45],> 100 µM
same,GI50,[46],21.7 µM
same,TGI,[46],> 100 µM
same,GI50,[47],25.4 µM
same,TGI,[47],87.5 µM
same,GI50,[48],10.7 µM
same,TGI,[48],22.5 µM
same,GI50,[49],4.07 µM
same,TGI,[49],31.7 µM
same,GI50,[50],24.3 µM
same,TGI,[50],93.3 µM
same,GI50,[51],9.77 µM
same,TGI,[51],39 µM
same,GI50,[52],20.4 µM
same,TGI,[52],> 100 µM
same,GI50,[53],11.7 µM
same,TGI,[53],57.1 µM
same,GI50,[54],22 µM
same,TGI,[54],> 100 µM
O=C(CCl)Nc1ccccc1SCc1cc(Cl)cc2c1OCOC2,GI50,[1],12.6 µM
same,TGI,[1],26.4 µM
same,GI50,[2],12.9 µM
same,TGI,[2],26.2 µM
same,GI50,[3],20.2 µM
same,TGI,[3],45.1 µM
same,GI50,[4],10.6 µM
same,TGI,[4],23.8 µM
same,GI50,[5],3.52 µM
same,TGI,[5],11.5 µM
same,GI50,[6],5.5 µM
same,TGI,[6],32.6 µM
same,GI50,[7],2.18 µM
same,TGI,[7],5.35 µM
same,GI50,[8],17.3 µM
same,TGI,[8],35.5 µM
same,GI50,[9],15.7 µM
same,TGI,[9],29.4 µM
same,GI50,[11],16.6 µM
same,TGI,[11],31.5 µM
same,GI50,[12],4.64 µM
same,TGI,[12],16.8 µM
same,GI50,[13],6.4 µM
same,TGI,[13],21.6 µM
same,GI50,[14],2.15 µM
same,TGI,[14],4.31 µM
same,GI50,[55],19.8 µM
same,TGI,[55],41.5 µM
same,GI50,[15],3.17 µM
same,TGI,[15],17.9 µM
same,GI50,[16],6.25 µM
same,TGI,[16],38.9 µM
same,GI50,[17],4.27 µM
same,TGI,[17],14.5 µM
same,GI50,[18],2.27 µM
same,TGI,[18],5.62 µM
same,GI50,[19],3.35 µM
same,TGI,[19],25.1 µM
same,GI50,[20],13.8 µM
same,TGI,[20],27.4 µM
same,GI50,[21],2.16 µM
same,TGI,[21],5.1 µM
same,GI50,[22],4.68 µM
same,TGI,[22],16.8 µM
same,GI50,[23],2.3 µM
same,TGI,[23],5.96 µM
same,GI50,[24],3.41 µM
same,TGI,[24],15.4 µM
same,GI50,[25],5.97 µM
same,TGI,[25],28 µM
same,GI50,[26],2.87 µM
same,TGI,[26],11.1 µM
same,GI50,[27],2.6 µM
same,TGI,[27],7.51 µM
same,GI50,[28],11.2 µM
same,TGI,[28],35.6 µM
same,GI50,[56],9.58 µM
same,TGI,[56],31.2 µM
same,GI50,[29],18.4 µM
same,TGI,[29],38.1 µM
same,GI50,[30],1.85 µM
same,TGI,[30],4 µM
same,GI50,[31],17.5 µM
same,TGI,[31],84.8 µM
same,GI50,[32],2.08 µM
same,TGI,[32],4.24 µM
same,GI50,[33],3.14 µM
same,TGI,[33],12.5 µM
same,GI50,[34],13.5 µM
same,TGI,[34],27.7 µM
same,GI50,[35],13 µM
same,TGI,[35],30.2 µM
same,GI50,[36],11.4 µM
same,TGI,[36],25.9 µM
same,GI50,[37],6.96 µM
same,TGI,[37],40.6 µM
same,GI50,[57],7.24 µM
same,TGI,[57],20.9 µM
same,GI50,[38],7.14 µM
same,TGI,[38],23.5 µM
same,GI50,[39],20 µM
same,TGI,[39],41.9 µM
same,GI50,[40],15.3 µM
same,TGI,[40],28.7 µM
same,GI50,[41],11.4 µM
same,TGI,[41],24.8 µM
same,GI50,[42],13.5 µM
same,TGI,[42],26.8 µM
same,GI50,[43],4.09 µM
same,TGI,[43],16.4 µM
same,GI50,[44],12.2 µM
same,TGI,[44],33.5 µM
same,GI50,[45],6.69 µM
same,TGI,[45],21 µM
same,GI50,[46],14.1 µM
same,TGI,[46],28.9 µM
same,GI50,[47],8.55 µM
same,TGI,[47],23.3 µM
same,GI50,[48],3.73 µM
same,TGI,[48],17.1 µM
same,GI50,[49],9.82 µM
same,TGI,[49],45.2 µM
same,GI50,[50],16.9 µM
same,TGI,[50],31.4 µM
same,GI50,[51],16.1 µM
same,TGI,[51],31.3 µM
same,GI50,[53],5.44 µM
same,TGI,[53],19.9 µM
same,GI50,[54],2.95 µM
same,TGI,[54],15 µM
